This is an account of results in patent US10668047B2, “Aziridine containing DNA alkylating agents” (priority 2015, dated 2020).

Read-outs that look alike come from different tables or passages of the source.

This experiment concerns H460 non-cell lung cancer human tumor cell line. In words: In vitro human tumor cell line cytotoxicity (proliferation) assay, AlamarBlue. It is filed as cell-based. As to the method: IC50 values are reported in micromolar and result from exposure of compound at various concentrations for 2 hrs followed by a wash step and addition of fresh media followed by growth and cell viability staining and comparison to a media only treated control.
Specifically, exponentially growing cells are seeded at a density of 4×10^3 cells per well in a 96 well plate and incubated at 37° C. in 5% CO2, 95% air and 100% relative humidity for 24 hours prior to addition of test compounds. Compounds are solubilized in 100% DMSO at 200 times the desired final test concentration. At the time of drug addition, compounds are further diluted to 4 times the desired final concentration with complete medium. Aliquots of 50 μl of compound at specified concentrations are added to microtiter wells already containing 150 μl of medium, resulting in the final drug concentration reported. After drug addition, the plates are incubated for an additional 2 hours at 37° C., 5% CO2, 95% air, and 100% relative humidity, then the drug is washed off and fresh medium is added and the plates are incubated for addition 70 hrs at 37° C., 5% CO2, 95% air and 100% relative humidity. At the end of this incubation, the viable cells are quantified using the AlamarBlue assay. The drug concentration resulting in growth inhibition of 50% (IC50) is calculated using Prism software (Irvine, Calif.), and the results are listed in the table.

Where [1] appears, read: Homo sapiens, NCI-H460, H460 cells, under air, 2 hrs exposure, wash, then 70 hrs growth, read-out: IC50 (air).
[2] abbreviates: Homo sapiens, NCI-H460, H460 cells, under nitrogen, 2 hrs exposure, wash, then 70 hrs growth, read-out: IC50 (N2).
[3] abbreviates: H460 cells, under air, 2 hrs exposure, wash, then 70 hrs growth, read-out: IC50 (air).
[4] abbreviates: H460 cells, under nitrogen, 2 hrs exposure, wash, then 70 hrs growth, read-out: IC50 (N2).

As to `CC(OP(=O)(N1CC1)N1CC1)c1ccc([N+](=O)[O-])cc1` (centres unmarked) [compound 2537], the IC50 (Homo sapiens, NCI-H460, read-out: IC50 (N2), H460 cells, under nitrogen, 2 hrs exposure, wash, then 70 hrs growth) is 0.3 µM and the IC50 (Homo sapiens, NCI-H460, read-out: IC50 (air), H460 cells, under air, 2 hrs exposure, wash, then 70 hrs growth) worked out at 53 µM.
Regarding `Cn1c([N+](=O)[O-])cnc1C(OP(=O)(N1CC1)N1CC1)c1ccccc1` (centres unmarked) [compound 2542], the IC50 is, setting by setting: under setting [1], 3.4 µM; under setting [2], 1.5 µM.
As for `CC(C)C(OP(=O)(N1CC1)N1CC1)c1ncc([N+](=O)[O-])n1CCN1CCOCC1` (centres unmarked) [compound 2544], the IC50 under setting [1] turned out to be 45 µM and the IC50 under setting [2] stood at 0.2 µM.
Turning to `CC(OP(=O)(N1CC1)N1CC1)c1ccccc1[N+](=O)[O-]` (centres unmarked) [compound 2547], the IC50 reads like this: under setting [1], 320 µM; under setting [2], 2.6 µM.
On the same counts, the results for `O=[N+]([O-])c1ccc(COP(=O)(N2CC2)N2CC2)cc1` [compound 2550] are 29 µM and 1.8 µM.
For `CC(OP(=O)(N1CC1)N1CC1)c1ncc([N+](=O)[O-])n1C` (centres unmarked) [compound 2551], the IC50 by setting is: under setting [3], 20 µM; under setting [4], 0.1 µM.
Take `CC(OP(=O)(N1CC1)N1CC1)c1ncc([N+](=O)[O-])n1C` (centres unmarked) [compound 2552]: the IC50 runs as follows: under setting [3], 23 µM; under setting [4], 0.1 µM.
In the case of `COc1cc([N+](=O)[O-])ccc1COP(=O)(N1CC1)N1CC1` [compound 2554], the IC50 runs as follows: under setting [1], 3 µM; under setting [2], 0.1 µM.
On the same counts, the results for `Cc1cc([N+](=O)[O-])ccc1COP(=O)(N1CC1)N1CC1` [compound 2556] are 17 µM and 0.7 µM.
On the same counts, the results for `CC(OP(=O)(N1CC1)N1CC1)c1c([N+](=O)[O-])ncn1C` (centres unmarked) [compound 2560] are 40 µM and 3.7 µM.
`Cn1c([N+](=O)[O-])cnc1C(OP(=O)(N1CC1)N1CC1)C1CCCC1` (centres unmarked) [compound 2561]: the IC50 is, setting by setting: under setting [1], 29 µM; under setting [2], 0.2 µM.
The matching figures for `O=[N+]([O-])c1ccccc1C(OP(=O)(N1CC1)N1CC1)c1ccccc1` (centres unmarked) [compound 2563]: 15 µM and 3.2 µM.
For the compound `CC(C)C(OP(=O)(N1CC1)N1CC1)c1ncc([N+](=O)[O-])n1C` (centres unmarked) [compound 2567], the IC50 runs as follows: under setting [3], 270 µM; under setting [4], 0.3 µM.
The matching figures for `CC(C)C(OP(=O)(N1CC1)N1CC1)c1ncc([N+](=O)[O-])n1C` (centres unmarked) [compound 2568]: 350 µM and 0.3 µM.
As to `C=CCC(OP(=O)(N1CC1)N1CC1)c1ccc([N+](=O)[O-])cc1OC` (centres unmarked) [compound 2569], the IC50 reads like this: under setting [1], 2 µM; under setting [2], 0.05 µM.
Regarding `CC(C)C(OP(=O)(N1CC1)N1CC1)c1ccc([N+](=O)[O-])cc1` (centres unmarked) [compound 2572], the IC50 by setting is: under setting [1], 29 µM; under setting [2], 1.6 µM.
The matching figures for `C=CCCn1c([N+](=O)[O-])cnc1C(OP(=O)(N1CC1)N1CC1)C(C)C` (centres unmarked) [compound 2574]: 29 µM and 0.1 µM.
The matching figures for `O=[N+]([O-])c1ccc(COP(=O)(N2CC2)N2CC2)c(Cl)c1` [compound 2576]: 1.8 µM and 0.1 µM.
Regarding `O=[N+]([O-])c1ccccc1COP(=O)(N1CC1)N1CC1` [compound 2578], the IC50 is, setting by setting: under setting [1], 28 µM; under setting [2], 6 µM.
On to `O=[N+]([O-])c1ccc(COP(=O)(N2CC2)N2CC2)cc1Cl` [compound 2579], for which the IC50 came out at 2.6 µM under setting [1] and 1.3 µM under setting [2].
The matching figures for `Cc1cc(COP(=O)(N2CC2)N2CC2)ccc1[N+](=O)[O-]` [compound 2580]: 20 µM and 3.7 µM.
On the same counts, the results for `C=CCCn1c([N+](=O)[O-])cnc1COP(=O)(N1CC1)N1CC1` [compound 2582] are 18 µM and 0.1 µM.
The matching figures for `Cc1cccc([N+](=O)[O-])c1COP(=O)(N1CC1)N1CC1` [compound 2588]: 10 µM and 1.3 µM.
As to `COc1ccc(COP(=O)(N2CC2)N2CC2)c([N+](=O)[O-])c1` [compound 2589], the IC50 runs as follows: under setting [1], 9.6 µM; under setting [2], 0.1 µM.
For the compound `Cc1ccc(COP(=O)(N2CC2)N2CC2)c([N+](=O)[O-])c1` [compound 2590], the half-maximal inhibitory concentration (IC50) worked out at 15 µM under setting [1] and 2.9 µM under setting [2].
On the same counts, the results for `Cn1c([N+](=O)[O-])cnc1C(Cc1ccccc1)OP(=O)(N1CC1)N1CC1` (centres unmarked) [compound 2591] are 19 µM and 0.1 µM.
Regarding `O=[N+]([O-])c1cc(Cl)ccc1COP(=O)(N1CC1)N1CC1` [compound 2592], the IC50 under setting [1] is 3.3 µM and the IC50 under setting [2] was determined as 0.7 µM.
The matching figures for `CCCCn1c([N+](=O)[O-])cnc1COP(=O)(N1CC1)N1CC1` [compound 2594]: 7.4 µM and 0.15 µM.
The matching figures for `CCCC(OP(=O)(N1CC1)N1CC1)c1ccc([N+](=O)[O-])cc1OC` (centres unmarked) [compound 2595]: 3.2 µM and 0.2 µM.
On the same counts, the results for `CC(C)Oc1cc([N+](=O)[O-])ccc1COP(=O)(N1CC1)N1CC1` [compound 2599] are 1.5 µM and 0.08 µM.
With `COc1cc([N+](=O)[O-])ccc1C(C)OP(=O)(N1CC1)N1CC1` (centres unmarked) [compound 2600], the IC50 under setting [1] amounted to 2.8 µM and the IC50 under setting [2] came out at 0.05 µM.
On the same counts, the results for `O=[N+]([O-])c1cc(Cl)c(COP(=O)(N2CC2)N2CC2)c(Cl)c1` [compound 2602] are 0.25 µM and 0.02 µM.
On the same counts, the results for `CC(C)C(OP(=O)(N1CC1)N1CC1)c1ncc([N+](=O)[O-])n1CCN1CCCCC1` (centres unmarked) [compound 2603] are 29 µM and 0.3 µM.
The matching figures for `CC(C)C(OP(=O)(N1CC1)N1CC1)c1ncc([N+](=O)[O-])n1C(C)C` (centres unmarked) [compound 2604]: 320 µM and 0.7 µM.
As for `O=[N+]([O-])c1ccc(COP(=O)(N2CC2)N2CC2)c(Br)c1` [compound 2608], the IC50 came to 3.1 µM under setting [1] and 0.3 µM under setting [2].
The matching figures for `CCC(CC)C(OP(=O)(N1CC1)N1CC1)c1ncc([N+](=O)[O-])n1C` (centres unmarked) [compound 2609]: 370 µM and 0.4 µM.
With `CCCC(OP(=O)(N1CC1)N1CC1)c1c(C)cccc1[N+](=O)[O-]` (centres unmarked) [compound 2610], the IC50 reads like this: under setting [1], 350 µM; under setting [2], 51 µM.
On to `Cc1cc([N+](=O)[O-])ccc1C(C)OP(=O)(N1CC1)N1CC1` (centres unmarked) [compound 2611], for which the IC50 under setting [1] was determined as 14 µM and the IC50 under setting [2] was determined as 0.2 µM.
On the same counts, the results for `CC(OP(=O)(N1CC1)N1CC1)c1ccc([N+](=O)[O-])c(C(F)(F)F)c1` (centres unmarked) [compound 2613] are 26 µM and 0.3 µM.
Consider `Cc1cccc([N+](=O)[O-])c1C(C)OP(=O)(N1CC1)N1CC1` (centres unmarked) [compound 2615], for which the IC50 is, setting by setting: under setting [1], 350 µM; under setting [2], 320 µM.
On the same counts, the results for `COc1ccc(C(C)OP(=O)(N2CC2)N2CC2)c([N+](=O)[O-])c1` (centres unmarked) [compound 2616] are 17 µM and 3.7 µM.
On the same counts, the results for `CC(C)C(OP(=O)(N1CC1)N1CC1)c1ncc([N+](=O)[O-])n1C1CCCC1` (centres unmarked) [compound 2619] are 99 µM and 2.3 µM.
The matching figures for `COc1cc(C(C)OP(=O)(N2CC2)N2CC2)ccc1[N+](=O)[O-]` (centres unmarked) [compound 2620]: 7.4 µM and 2.5 µM.
